Test results published in ChEMBL document CHEMBL2163290, “Substituted pyrazolones require N2 hydrogen bond donating ability to protect against cytotoxicity from protein aggregation of mutant superoxide dismutase 1” (Bioorg Med Chem Lett, 2012).

System: PC-12
Assay: Neuroprotective activity in rat PC12 cells expressing SOD1 G93A mutant assessed as increase in cell viability after 48 hrs by CalceinAM-based fluorescence assay
Type: functional
Details: PC-12, 48 h

Question: With `O=c1cc(COc2cc(Cl)cc(Cl)c2)[nH][nH]1` as the molecule, how does the EC50 read?
Answer: 67 nM

Question: `O=C1CC(COc2cc(Cl)cc(Cl)c2)CN1Cc1ccccc1` (stereo not given) was tested. Which EC50 did it give?
Answer: > 32000 nM

Question: How did the EC50 turn out when `O=C1C=C(COc2cc(Cl)cc(Cl)c2)CN1Cc1ccccc1` was run?
Answer: > 32000 nM

Question: For `Cn1[nH]c(COc2cc(Cl)cc(Cl)c2)cc1=O`, which EC50 is on record?
Answer: 670 nM

Question: Which EC50 does the source give for `Cn1c(COc2cc(Cl)cc(Cl)c2)cc(=O)n1C` here?
Answer: > 32000 nM

Question: With `O=C1N[C@H]2[C@H](CS[C@H]2CCCCC(=O)n2[nH]c(COc3cc(Cl)cc(Cl)c3)cc2=O)N1` as the molecule, how does the EC50 read?
Answer: 560 nM

Question: How did the EC50 turn out when `O=C(CCCC[C@@H]1SC[C@@H]2NC(=O)N[C@@H]21)NCCOCCOCCOCCOCCC(=O)n1[nH]c(COc2cc(Cl)cc(Cl)c2)cc1=O` was run?
Answer: 670 nM

Question: For `O=c1cc(COc2cc(Cl)cc(Cl)c2)[nH]n1CCO`, which EC50 is on record?
Answer: > 32000 nM

Question: How did the EC50 turn out when `O=c1cc(COc2cc(Cl)cc(Cl)c2)[nH]n1CCCO` was run?
Answer: 340 nM

Question: For `O=c1cc(COc2cc(Cl)cc(Cl)c2)[nH]n1-c1ccccc1`, which EC50 is on record?
Answer: 1030 nM

Question: For `O=c1cc(COc2cc(Cl)cc(Cl)c2)[nH]n1-c1ccc(Cl)cc1`, which EC50 is on record?
Answer: 1730 nM

Question: `O=c1cc(COc2cc(Cl)cc(Cl)c2)[nH]n1-c1c(Cl)cc(C(F)(F)F)cc1Cl` was tested. Which EC50 did it give?
Answer: > 32000 nM

Question: For `O=c1cc(COc2cc(Cl)cc(Cl)c2)[nH]n1-c1ccc([N+](=O)[O-])cc1[N+](=O)[O-]`, which EC50 is on record?
Answer: > 32000 nM

Question: With `O=c1cc(COc2cc(Cl)cc(Cl)c2)[nH]n1-c1nc(-c2ccccc2)cs1` as the molecule, how does the EC50 read?
Answer: 1000 nM

Question: Which EC50 does the source give for `O=c1cc(COc2cc(Cl)cc(Cl)c2)[nH]n1Cc1ccccc1` here?
Answer: 130 nM

Question: Which EC50 does the source give for `O=c1cc(COc2cc(Cl)cc(Cl)c2)[nH]n1Cc1cccc(O)c1` here?
Answer: 360 nM

Question: For `COc1ccc(Cn2[nH]c(COc3cc(Cl)cc(Cl)c3)cc2=O)cc1`, which EC50 is on record?
Answer: > 32000 nM

Question: Which EC50 does the source give for `O=Cn1[nH]c(COc2cc(Cl)cc(Cl)c2)cc1=O` here?
Answer: 490 nM

Question: Which EC50 does the source give for `CC(=O)n1[nH]c(COc2cc(Cl)cc(Cl)c2)cc1=O` here?
Answer: 270 nM

Question: How did the EC50 turn out when `N#CCC(=O)n1[nH]c(COc2cc(Cl)cc(Cl)c2)cc1=O` was run?
Answer: 420 nM

Question: `O=C(c1cccs1)n1[nH]c(COc2cc(Cl)cc(Cl)c2)cc1=O` was tested. Which EC50 did it give?
Answer: 310 nM

Question: With `O=C(c1ccc(N=C=S)cc1)n1[nH]c(COc2cc(Cl)cc(Cl)c2)cc1=O` as the molecule, how does the EC50 read?
Answer: 330 nM

Question: Which EC50 does the source give for `Cc1nnsc1C(=O)n1[nH]c(COc2cc(Cl)cc(Cl)c2)cc1=O` here?
Answer: 1710 nM

Question: `Nc1ccc(C(=O)n2[nH]c(COc3cc(Cl)cc(Cl)c3)cc2=O)cc1` was tested. Which EC50 did it give?
Answer: 930 nM

Question: Which EC50 does the source give for `O=C(c1cccnc1)n1[nH]c(COc2cc(Cl)cc(Cl)c2)cc1=O` here?
Answer: 1320 nM
